The target of one series is T1, acid ceramidase (Homo sapiens, UniProt Q13510).
T1 construct: Cell lysates overexpressing acid ceramidase were used as the enzyme source; expressed in transfected cells
T1 sequence (Q13510 22-395): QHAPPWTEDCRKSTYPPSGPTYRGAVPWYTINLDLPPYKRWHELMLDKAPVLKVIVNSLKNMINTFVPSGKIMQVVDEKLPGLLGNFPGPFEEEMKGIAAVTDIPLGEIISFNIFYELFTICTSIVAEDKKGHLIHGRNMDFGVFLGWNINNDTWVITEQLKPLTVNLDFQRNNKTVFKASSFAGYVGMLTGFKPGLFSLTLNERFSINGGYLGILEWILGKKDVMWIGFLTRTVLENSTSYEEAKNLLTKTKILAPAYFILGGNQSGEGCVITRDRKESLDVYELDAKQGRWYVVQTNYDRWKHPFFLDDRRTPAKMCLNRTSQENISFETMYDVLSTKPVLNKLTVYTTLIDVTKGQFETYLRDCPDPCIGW
As to the kind of experiment: Acid ceramidase inhibition, biochemical fluorescent assay with cell lysates overexpressing acid ceramidase, substrate Rbm14-12. The conditions noted are these: substrate Rbm14-12 6.3 μM. The method, boiled down: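 IC50 derived by four-parameter fitting of fluorescence (ex360 nm, em446 nm) produced after 1 hr in methanol/NaIO4/glycine stop buffer, pH 10.6. Reaction: 6.3 μM Rbm14-12, 1 hr RT, following 1 hr RT compound preincubation with 10 μg overexpressing-cell lysate protein in pH 4.5 NaAC/NaCl buffer.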

The nature of series [1]: Compound solubility in water.
Setting [2] is: pH 4.5, 1 hr preincubation at RT.

Values after ≈ are worked out from the molar mass of the structure shown.

Experimental findings from patent US20220380319A1 (Bial - R&D Investments, S.A., priority 2019, published 2022) are described below.

The compound `O=C(NCCOc1ccccc1)n1cnc2c(C(F)(F)F)cccc21` [Example 72, N-(2-Phenoxyethyl)-4-(trifluoromethyl)-1H-benzo[d]imidazole-1-carboxamide] returned an IC50 on acid ceramidase (setting [2]) of under 200 nM. The compound also had a solubility in series [1] of 2 µg/mL (≈ 5.73 µM).
With `COc1cc(N2CCOCC2)cc2c1ncn2C(=O)NCCc1ccccc1` [Example 39, 4-Methoxy-6-morpholino-N-phenethyl-1H-benzo[d]imidazole-1-carboxamide], the IC50 against acid ceramidase (setting [2]) is under 200 nM. The amount in solution in series [1] (solubility) came to 16.3 µg/mL (≈ 42.8 µM).
On the same counts, the results for `COc1nc2ccc(-c3cccnc3)cc2n1C(=O)NCCc1ccccc1` [Example 30b, 2-methoxy-N-phenethyl-6-(pyridin-3-yl)-1H-benzo[d]imidazole-1-carboxamide] are under 200 nM and 3.9 µg/mL (≈ 10.5 µM).
At acid ceramidase (setting [2]), `CCOc1nc2c(F)cccc2n1C(=O)NCCc1ccccc1` [Example 92, 2-Ethoxy-4-fluoro-N-phenethyl-1H-benzo[d]imidazole-1-carboxamide] came in with an IC50 of under 200 nM. In series [1], the concentration in solution (solubility) came to 1.2 µg/mL (≈ 3.67 µM).
Compound `CC(C)CNC(=O)n1c(=O)n(C)c2ccc(-c3cccnc3)cc21` [Example 123, N-iso-Butyl-3-methyl-2-oxo-6-(pyridin-3-yl)-2,3-dihydro-1H-benzo[d]imidazole-1-carboxamide] registered an IC50 against acid ceramidase (setting [2]) of over 1000 nM. This compound also yielded a solubility in series [1] of 0.6 µg/mL (≈ 1.85 µM).
As to `COc1nc2ccc(N3CCOCC3)cc2n1C(=O)NCC1(CC2CC2)CC1` [Example 229a, N-((1-(Cyclopropylmethyl)cyclopropyl)-methyl)-2-methoxy-6-morpholino-1H-benzo[d]imidazole-1-carboxamide], the IC50 at acid ceramidase (pH 4.5) lay within 200 to 1000 nM. Further, the solubility in series [1] turned out to be 1 µg/mL (≈ 2.6 µM).
`CN1CCN(c2cccc3c2ncn3C(=O)NCCCC2CC(F)(F)C2)CC1` [Example 260, N-(3-(3,3-Difluorocyclobutyl)propyl)-4-(4-methylpiperazin-1-yl)-1H-benzo[d]imidazole-1-carboxamide] came in with an IC50 against acid ceramidase (pH 4.5) of 200 to 1000 nM. For the same compound, the concentration in solution in series [1] (solubility) was 31 µg/mL (≈ 79.2 µM).
Consider `COc1nc2ccc(-c3cncnc3)cc2n1C(=O)NCCc1ccccc1` [Example 31a, 2-Methoxy-N-phenethyl-6-(pyrimidin-5-yl)-1H-benzo[d]imidazole-1-carboxamide], for which the IC50 on acid ceramidase (setting [2]) is under 200 nM. In series [1], this compound displayed a solubility of 7.1 µg/mL (≈ 19 µM).
With `CCCCNC(=O)n1c(OCC)nc2ccccc21` [Example 97, N-Butyl-2-ethoxy-1H-benzo[d]imidazole-1-carboxamide], at acid ceramidase (setting [2]), the IC50 was 200 to 1000 nM. For the same compound, the solubility in series [1] was 10.9 µg/mL (≈ 41.7 µM).
As for `CCCCNC(=O)n1c(OC)nc2c(OC)cccc21` [Example 100, N-Butyl-2,4-dimethoxy-1H-benzo[d]imidazole-1-carboxamide], the IC50 against acid ceramidase (setting [2]) fell in the range of 200 to 1000 nM. For the same compound, the solubility in series [1] is 28 µg/mL (≈ 101 µM).
In the same order, the values of `O=C(NCCc1ccccc1)n1cnc2ccc(C(F)(F)F)cc21` [Example 26b, N-phenethyl-6-(trifluoromethyl)-1H-benzo[d]imidazole-1-carboxamide] are under 200 nM and 2.6 µg/mL (≈ 7.8 µM).
For the compound `CC(C)C#CCNC(=O)n1cnc2c(N3CCC4(CC3)CCN4C)cccc21` [Example 313, 4-(1-Methyl-1,7-diazaspiro[3.5]nonan-7-yl)-N-(4-methylpent-2-yn-1-yl)-1H-benzo[d]imidazole-1-carboxamide], the IC50 at acid ceramidase (pH 4.5) was under 200 nM. In addition, the solubility in series [1] is 29 µg/mL (≈ 76.4 µM).
`COc1nc2cc(N3[C@@H]4CC[C@H]3COC4)ccc2n1C(=O)NCCCc1ccccc1` [Example 237a, 5-((1R,5S)-3-Oxa-8-azabicyclo[3.2.1]octan-8-yl)-2-methoxy-N-(3-phenylpropyl)-1H-benzo[d]imidazole-1-carboxamide]: the 50% inhibitory concentration (IC50) at acid ceramidase (pH 4.5) is under 200 nM. This compound came in with a solubility in series [1] of 1 µg/mL (≈ 2.38 µM).
Regarding `CN1CCN(c2cccc3c2ncn3C(=O)NCc2ccc3c(c2)OCO3)CC1` [Example 346, N-(Benzo[d][1,3]dioxol-5-ylmethyl)-4-(4-methylpiperazin-1-yl)-1H-benzo[d]imidazole-1-carboxamide], the IC50 at acid ceramidase (setting [2]) is under 200 nM. In addition, the solubility in series [1] is 11 µg/mL (≈ 28 µM).
Consider `O=C(NCCc1ccccc1)n1cnc2cc(-c3cccnc3)ccc21` [Example 10a, N-Phenethyl-5-(pyridin-3-yl)-1H-benzo[d]imidazole-1-carboxamide], for which the IC50 against acid ceramidase (setting [2]) is under 200 nM. In series [1], this compound displayed a solubility of 1.2 µg/mL (≈ 3.5 µM).
In turn, `CC(C)CCNC(=O)n1cnc2c(N3CCN(C)C(C)C3)cccc21` (stereo not shown) [Example 197, 4-(3,4-Dimethylpiperazin-1-yl)-N-iso-pentyl-1H-benzo[d]imidazole-1-carboxamide] displayed an IC50 against acid ceramidase (pH 4.5) of 200 to 1000 nM. Moreover, the solubility in series [1] worked out at 28 µg/mL (≈ 81.5 µM).
With `CCCCNC(=O)n1cnc2cc(N3CCC(N4CCOCC4)CC3)ccc21` [Example 101b, N-butyl-5-(4-morpholinopiperidin-1-yl)-1H-benzo[d]imidazole-1-carboxamide], the IC50 against acid ceramidase (setting [2]) was under 200 nM. Besides, the concentration in solution in series [1] (solubility) came to 7.5 µg/mL (≈ 19.5 µM).
On the same counts, the results for `COc1nc2c(C#N)cccc2n1C(=O)NCC#CC(C)C` [Example 140, 4-Cyano-2-methoxy-N-(4-methylpent-2-ynyl)-1H-benzo[d]imidazole-1-carboxamide] are under 200 nM and 10 µg/mL (≈ 33.7 µM).
As for `COc1nc2c(N3CCC(F)(F)CC3)cccc2n1C(=O)NCCC(C)C` [Example 144, 4-(4,4-Difluoropiperidin-1-yl)-N-isopentyl-2-methoxy-1H-benzo[d]imidazole-1-carboxamide], the IC50 against acid ceramidase (setting [2]) is over 1000 nM. Besides, the concentration in solution in series [1] (solubility) came to 1.2 µg/mL (≈ 3.15 µM).
Compound `COc1nc2c(N3CCN(C)CC3)cc(C#N)cc2n1C(=O)NCCC(C)C` [Example 210, 6-Cyano-N-iso-pentyl-2-methoxy-4-(4-methylpiperazin-1-yl)-1H-benzo[d]imidazole-1-carboxamide] registered an IC50 against acid ceramidase (pH 4.5) of under 200 nM. Further, in series [1], the solubility turned out to be 12 µg/mL (≈ 31.2 µM).
At acid ceramidase (setting [2]), `CCCCCNC(=O)n1cnc2ccccc21` [Example 23, N-Pentyl-1H-benzo[d]imidazole-1-carboxamide] had an IC50 of under 200 nM. This compound showed a solubility in series [1] of 13.3 µg/mL (≈ 57.5 µM).
On acid ceramidase (setting [2]), `O=C(NCCc1ccccc1)n1c(Oc2ccccc2)nc2ccccc21` [Example 37, N-Phenethyl-2-phenoxy-1H-benzo[d]imidazole-1-carboxamide] yielded a half-maximal inhibitory concentration (IC50) of under 200 nM. Besides, the solubility in series [1] stood at 0.2 µg/mL (≈ 0.56 µM).
Turning to `O=C(NCCc1ccccc1)n1cnc2c(N3CCN(C4COC4)CC3)cccc21` [Example 326, 4-(4-(Oxetan-3-yl)piperazin-1-yl)-N-phenethyl-1H-benzo[d]imidazole-1-carboxamide], on acid ceramidase (pH 4.5), the half-inhibitory concentration (IC50) is under 200 nM. The compound also displayed a solubility in series [1] of 21 µg/mL (≈ 51.8 µM).
Take `O=C(NCCc1ccccc1)n1cnc2ccncc21` [Example 21, N-Phenethyl-3H-imidazo[4,5-c]pyridine-3-carboxamide]: the half-maximal inhibitory concentration (IC50) against acid ceramidase (setting [2]) is under 200 nM. In series [1], this compound gave a solubility of 4.3 µg/mL (≈ 16.1 µM).
On to `CN1CCN(c2cccc3c2ncn3C(=O)NCCCC(F)(F)F)CC1` [Example 255, 4-(4-Methylpiperazin-1-yl)-N-(4,4,4-trifluorobutyl)-1H-benzo[d]imidazole-1-carboxamide], for which, at acid ceramidase (pH 4.5), the IC50 is 200 to 1000 nM. The compound also came in with a solubility in series [1] of 35 µg/mL (≈ 94.8 µM).
As for `CCC#CCNC(=O)n1cnc2c(N3CCN(C)CC3)cccc21` [Example 305, 4-(4-Methylpiperazin-1-yl)-N-(pent-2-yn-1-yl)-1H-benzo[d]imidazole-1-carboxamide], the half-inhibitory concentration (IC50) on acid ceramidase (pH 4.5) lay in the range of 200 to 1000 nM. In addition, in series [1], the solubility amounted to 27 µg/mL (≈ 83 µM).
